Structures can show the parent of a compound that is named as a salt.
Experiments:
Assay in all cases: In vitro high-throughput screen of FDA-approved drug library (CellTiter-Glo)
Format in all cases: cell-based
A673 = settings: 1 μmol/L drug, 72 hours; for inhibition at 1 µM: Homo sapiens, A673, read-out: % Inhibition A673
Experimental: (§1) We screened, in parallel to the three computational approaches, an FDA-approved drug library containing 2,316 drugs (1,536 unique chemical entities). […] The drug screening study protocol employed is summarized in Supplementary Table S1.
(§2) Cells were grown to 80–90% confluence, harvested and aliquoted into 384-well plates (black μClear microplates, Greiner bio-one, Germany) at concentrations of 750–1,500 cells per well in a total volume of 25 μl/well using a Matrix Wellmate (Thermo Scientific). Cells were cultured for 72 hours in a 5% CO2 atmosphere at 37°C. Aliquots of 25 μl CellTiter-Glo® Reagent (Promega) were added directly to each well, the plates were incubated at room temperature for 20 min and the luminescence signal was measured according to the manufacturer's protocol. The measurements were made using Infinite® M200 Pro plate reader (Tecan, Switzerland). […] Data were normalized to percentage inhibition. […]
(§3) (A) Color scale for drug inhibition values. […]

Hs 919.T. = settings: 1 μmol/L drug, 72 hours, control cell line; for inhibition at 1 µM: read-out: % Inhibition Hs 919.T.
Experimental: as §1, §2, §3

SK-ES-1 = settings: 1 μmol/L drug, 72 hours; for inhibition at 1 µM: Homo sapiens, SK-ES1, read-out: % Inhibition SK-ES-1
Experimental: as §1, §2, §3

RD-ES = settings: 1 μmol/L drug, 72 hours; for inhibition at 1 µM: RD-ES, read-out: % Inhibition RD-ES
Experimental: as §1, §2, §3

N=c1ccn2c(n1)O[C@H]1[C@H](O)[C@@H](CO)O[C@H]12 [Cyclocytidine]
inhibition at 1 µM (A673): 86%
inhibition at 1 µM (Hs 919.T.): < 50%
inhibition at 1 µM (SK-ES-1): 98%
inhibition at 1 µM (RD-ES): 83%

CCC(C)(C)c1ccc(CC(C)CN2C[C@@H](C)O[C@@H](C)C2)cc1 (stereo partly drawn) [Amorolfine]
inhibition at 1 µM (A673): 56%
inhibition at 1 µM (Hs 919.T.): < 50%
inhibition at 1 µM (SK-ES-1): < 50%
inhibition at 1 µM (RD-ES): < 50%

Nc1nc(=S)c2ncn([C@@H]3O[C@H](CO)[C@@H](O)[C@H]3O)c2[nH]1 [Thioguanosine]
inhibition at 1 µM (A673): 73%
inhibition at 1 µM (Hs 919.T.): < 50%
inhibition at 1 µM (SK-ES-1): 64%
inhibition at 1 µM (RD-ES): < 50%

CC[C@@]1(O)C(=O)OCc2c1cc1n(c2=O)Cc2cc3c(CN(C)C)c(O)ccc3nc2-1 [Topotecan HCl]
inhibition at 1 µM (A673): 97%
inhibition at 1 µM (Hs 919.T.): < 50%
inhibition at 1 µM (SK-ES-1): 96%
inhibition at 1 µM (RD-ES): 97%

CN(Cc1cnc2nc(N)nc(N)c2n1)c1ccc(C(=O)N[C@@H](CCC(=O)O)C(=O)O)cc1 (racemic) [Methotrexate/Amethopterin (R,S), Methotrexate]
inhibition at 1 µM (A673): 89%
inhibition at 1 µM (Hs 919.T.): < 50%
inhibition at 1 µM (SK-ES-1): < 50%
inhibition at 1 µM (RD-ES): 82%

Cc1nc2ccc(CN(C)c3ccc(C(=O)N[C@@H](CCC(=O)O)C(=O)O)s3)cc2c(=O)[nH]1 [Raltitrexed]
inhibition at 1 µM (A673): 59%
inhibition at 1 µM (Hs 919.T.): < 50%
inhibition at 1 µM (SK-ES-1): 51%
inhibition at 1 µM (RD-ES): 80%

CO[C@@H]1[C@@H](OC(N)=O)[C@@H](O)[C@H](Oc2ccc3c(O)c(NC(=O)c4ccc(O)c(CC=C(C)C)c4)c(=O)oc3c2C)OC1(C)C [Novobiocin sodium]
inhibition at 1 µM (A673): 60%
inhibition at 1 µM (Hs 919.T.): < 50%
inhibition at 1 µM (SK-ES-1): < 50%
inhibition at 1 µM (RD-ES): 51%

CCN(CC)C(=S)SSC(=S)N(CC)CC [Disulfiram]
inhibition at 1 µM (A673): 99%
inhibition at 1 µM (Hs 919.T.): < 50%
inhibition at 1 µM (SK-ES-1): 95%
inhibition at 1 µM (RD-ES): 96%

CCCCCC[C@H]1C(=O)O[C@H](C)[C@H](NC(=O)c2cccc(NC=O)c2O)C(=O)O[C@@H](C)[C@@H]1OC(=O)CC(C)C [Antimycin A]
inhibition at 1 µM (A673): < 50%
inhibition at 1 µM (Hs 919.T.): < 50%
inhibition at 1 µM (SK-ES-1): < 50%
inhibition at 1 µM (RD-ES): 69%

Cn1cnc([N+](=O)[O-])c1Sc1ncnc2nc[nH]c12 [Azathioprine]
inhibition at 1 µM (A673): < 50%
inhibition at 1 µM (Hs 919.T.): < 50%
inhibition at 1 µM (SK-ES-1): 52%
inhibition at 1 µM (RD-ES): < 50%

C=C1[C@@H]2CC[C@H]3[C@]4(C)C[C@H](O[C@@H]5O[C@H](CO)[C@@H](OS(=O)(=O)[O-])[C@H](OS(=O)(=O)[O-])[C@H]5OC(=O)CC(C)C)C[C@@H](C(=O)O)[C@H]4CC[C@]3(C2)[C@H]1O.[K+].[K+] [Atractyloside potassium salt]
% Inhibition A673 (A673): 99%
% Inhibition Hs 919.T. (Hs 919.T.): < 50%
% Inhibition SK-ES-1 (SK-ES-1): 99%
% Inhibition RD-ES (RD-ES): 98%

O=c1c2ccccc2[se]n1-c1ccccc1 [Ebselen]
inhibition at 1 µM (A673): 93%
inhibition at 1 µM (Hs 919.T.): < 50%
inhibition at 1 µM (SK-ES-1): 96%
inhibition at 1 µM (RD-ES): 95%

COc1cc2c3cc1Oc1cc(ccc1O)C[C@@H]1c4c(cc(OC)c(O)c4Oc4ccc(cc4)C[C@@H]3N(C)CC2)CC[N+]1(C)C.Cl.O.O.O.O.O.[Cl-] [(+)-Tubocurarine chloride]
% Inhibition A673 (A673): < 50%
% Inhibition Hs 919.T. (Hs 919.T.): < 50%
% Inhibition SK-ES-1 (SK-ES-1): < 50%
% Inhibition RD-ES (RD-ES): 51%

COc1c(C)c2c(c(O)c1C/C=C(\C)CCC(=O)O)C(=O)OC2 [Mycophenolic Acid]
inhibition at 1 µM (A673): < 50%
inhibition at 1 µM (Hs 919.T.): < 50%
inhibition at 1 µM (SK-ES-1): < 50%
inhibition at 1 µM (RD-ES): 52%

CC(=O)O[C@H]1C(=O)[C@@]2(C)[C@H]([C@H](OC(=O)c3ccccc3)[C@]3(O)C[C@H](OC(=O)[C@H](O)[C@@H](NC(=O)c4ccccc4)c4ccccc4)C(C)=C1C3(C)C)[C@]1(OC(C)=O)CO[C@@H]1C[C@@H]2O [Paclitaxel/Taxol, Paclitaxel]
inhibition at 1 µM (A673): 96%
inhibition at 1 µM (Hs 919.T.): < 50%
inhibition at 1 µM (SK-ES-1): 96%
inhibition at 1 µM (RD-ES): 97%

From publication PMC5354814, “In silico and in vitro drug screening identifies new therapeutic approaches for Ewing sarcoma” (Oncotarget, 2016)
